Measurements published in patent US20250243427A1, “PRECURSORS OF PHENOLIC FRAGRANT COMPOUNDS” (GIVAUDAN SA, priority 2021, published 2025).

Assays:
[1] = Odor description on paper blotter; conditions: 1% solution in EtOH on paper blotter, 24 h
[2] = Washtest and sensory evaluation of fabric washed with liquid detergent; conditions: liquid detergent washtest; for odour intensity, wet: Table 2 (position of double bond), wet fabric, scale 0 (odorless) to 5 (extremely strong); for odour intensity, 1 day / odour intensity, 4 days: Table 2, scale 0 to 5; for odour intensity, 1 day: dry fabric 1 day; for odour intensity, 4 days: dry fabric 4 days
Procedure: The wet and line-dried fabric (1 and 4 days) was assessed by a panel of 4-6 experts with regard to odor intensity and quality. The odor intensity was recorded on an intensity scale of 0 (odorless) to 5 (extremely strong).
The odour intensity was recorded on an intensity scale of 0 (odorless) to 5 (extremely strong).
Liquid detergent samples were prepared and used in washtests and subsequent sensory evaluation of the washed and dried fabric as described in Example 45a and c. The odor intensity was recorded on an intensity scale of 0 (odorless) to 5 (extremely strong).

| Compound | Odor description [1] | further results |
| --- | --- | --- |
| C=C(C)CCOc1ccc(C=O)cc1OCC [Example 15, 3-ethoxy-4-((3-methylbut-3-en-1-yl)oxy)benzaldehyde] | mild, powdery, spicy |  |
| C=CCC(C=C(C)C)Oc1ccc(C=O)cc1OCC (stereo not drawn) [Example 24, 3-ethoxy-4-((6-methylhepta-1,5-dien-4-yl)oxy)benzaldehyde] | powdery (creamy, vanilla) |  |
| CC/C=C\CC(C)Oc1ccc(C=O)cc1OCC (stereo not drawn) [Example 4, (Z)-3-ethoxy-4-(hept-4-en-2-yloxy)benzaldehyde] | sweet (brown sugar) powdery (vanillin, chocolate, ice cream) |  |
| C=CCC(CCC)Oc1ccc(C=O)cc1OCC (stereo not drawn) [Example 19, 3-ethoxy-4-(hept-1-en-4-yloxy)benzaldehyde] | powdery (dry, vanilla) fruity (metallic) |  |
| CCOc1cc(C=O)ccc1OCC/C=C/C(C)C [Example 32, (E)-3-ethoxy-4-((5-methylhex-3-en-1-yl)oxy)benzaldehyde] | powdery, vanilla, green, hazelnut, chocolate |  |
| CCOc1cc(C=O)ccc1OCCC=CC(=O)OC [Example 60, methyl 5-(2-ethoxy-4-formylphenoxy)pent-2-enoate] | sweet powdery gourmand, vanilla, coffee, creamy, vanilla, milky |  |
| CCOc1cc(C=O)ccc1OCCC=CCCOc1ccc(C=O)cc1OCC [Example 52, 4,4′-(hex-3-ene-1,6-diylbis(oxy))bis(3-ethoxybenzaldehyde)] | powdery (vanilla) |  |
| C=CCC(Oc1ccc(C=O)cc1OCC)C(=O)OCC (stereo not drawn) [Example 61, ethyl 2-(2-ethoxy-4-formylphenoxy)pent-4-enoate] | sweet powdery gourmand (vanilla, coffee) creamy (vanilla, milky) |  |
| CC/C=C\CCOc1ccc(COC)cc1OCC [Example 49, (Z)-2-ethoxy-1-(hex-3-en-1-yloxy)-4-(methoxymethyl)benzene] | spicy (eugenol, smokey), powdery (vanilla) |  |
| C=CCC(CC)Oc1ccc(CCC(C)=O)cc1 (stereo not drawn) [Example 25, 4-(4-(hex-5-en-3-yloxy)phenyl)butan-2-one] | sweet (icing sugar cristal) raspberry |  |
| COC(=O)c1c(C)cc(OCCC=C(C)C)c(C)c1O [Example 62, methyl 2-hydroxy-3,6-dimethyl-4-((4-methylpent-3-en-1-yl)oxy)benzoate] | mossy (evernyl) |  |
| 3-ethoxy-4-((4-methylhepta-3,6-dien-1-yl)oxy)benzaldehyde and 3-ethoxy-4-((4-methylhepta-3,5-dien-1-yl)oxy)benzaldehyde [Example 29] | powdery (vanilla) sweet (sugary) |  |
| CCC(C)=CCCOc1ccc(CCC(C)=O)cc1 [Example 36, 4-(4-((4-methylhex-3-en-1-yl)oxy)phenyl)butan-2-one] | fruity, raspberry, sweet, powdery |  |
| CC/C=C/CCOc1ccc(CCC(C)=O)cc1 [Example 7, (E)-4-(4-(hex-3-en-1-yloxy)phenyl)butan-2-one] | raspberry |  |
| CCCC/C=C\CCOc1ccc(C=O)cc1OCC [Example 17, (Z)-3-ethoxy-4-(oct-3-en-1-yloxy)benzaldehyde] | vanilla (powdery, spicy, creamy) |  |
| C=CCC(C=C(C)C)Oc1ccc(CCC(C)=O)cc1 (stereo not drawn) [Example 27, 4-(4-((6-methylhepta-1,5-dien-4-yl)oxy)phenyl)butan-2-one] | fruity (powdery, sweet, raspberry) |  |
| CCOc1cc(C=O)ccc1OCCC=C(C)CC [Example 40, 3-ethoxy-4-((4-methylhex-3-en-1-yl)oxy)benzaldehyde] | powdery, vanilla, creamy, chocolate, slightly butyric |  |
| C=CCCCOc1ccc(C=O)cc1OCC [Example 53, 3-ethoxy-4-(pent-4-en-1-yloxy)benzaldehyde, reference compound] |  | odour intensity, wet [2]: 1.5; odour intensity, 1 day [2]: 1.3; odour intensity, 4 days [2]: 1.2 |
| CC(C)=CCCOc1ccc(C)cc1 [Example 44, 1-methyl-4-((4-methylpent-3-en-1-yl)oxy)benzene] | animalic, leathery, phenolic, paracresol |  |
| C=CCC(CC=C)Oc1ccc(C=O)cc1OCC [Example 22, 3-ethoxy-4-(hepta-1,6-dien-4-yloxy)benzaldehyde] | powdery (creamy, vanilla) |  |
| CC/C=C\CCOc1cc(C)cc(OC)c1 [Example 41, (Z)-1-(hex-3-en-1-yloxy)-3-methoxy-5-methylbenzene] | green, bell pepper |  |
| C=CCCOc1ccc(CC=C)cc1OC [Example 13, 4-allyl-1-(but-3-en-1-yloxy)-2-methoxybenzene] | slightly spicy (iso eugenol) fruity (berry) |  |
| COc1cc(C=O)ccc1OCCC=C(C)C [Example 37, 3-methoxy-4-((4-methylpent-3-en-1-yl)oxy)benzaldehyde] | powdery, vanilla, creamy |  |
| C=CCCOc1cc(C)c(C(=O)OC)c(O)c1C [Example 14, methyl 4-(but-3-en-1-yloxy)-2-hydroxy-3,6-dimethylbenzoate] | slightly mossy |  |

| Compound | Odor description [1] | further results |
| --- | --- | --- |
| CC/C=C\CC(C)Oc1ccc(CCC(C)=O)cc1 (stereo not drawn) [Example 5, (Z)-4-(4-(hept-4-en-2-yloxy)phenyl)butan-2-one] | raspberry (fruity, ripe, fresh) |  |
| CCc1ccc(OCCC=C(C)C)cc1 [Example 42, 1-ethyl-4-((4-methylpent-3-en-1-yl)oxy)benzene] | animalic, leathery, phenolic, paracresol |  |
| CCCc1cccc(OCCC=C(C)C)c1 [Example 45, 1-((4-methylpent-3-en-1-yl)oxy)-3-propylbenzene] | animalic, leathery, phenolic, paracresol, green, hay, rooty |  |
| CC/C=C\CCOc1ccccc1C(=O)CC [Example 46, (Z)-1-(2-(hex-3-en-1-yloxy)phenyl)propan-1-one] | green, wintergreen |  |
| C=CCC(C=CC)Oc1ccc(CCC(C)=O)cc1 (stereo not drawn) [Example 26, 4-(4-(hepta-1,5-dien-4-yloxy)phenyl)butan-2-one] | sweet (icing sugar cristal) raspberry |  |
| C=CCC(CC=C)Oc1ccc(CCC(C)=O)cc1 [Example 23, 4-(4-(hepta-1,6-dien-4-yloxy)phenyl)butan-2-one] | fruity (raspberry) |  |
| C=C(C)CCOc1ccc(CCC(C)=O)cc1 [Example 16, 4-(4-((3-methylbut-3-en-1-yl)oxy)phenyl)butan-2-one] | fruity (raspberry) sweet |  |
| CCCC(C)=CCCOc1ccc(C=O)cc1OC [Example 38, 3-methoxy-4-((4-methylhept-3-en-1-yl)oxy)benzaldehyde] | powdery, vanilla, chocolate |  |
| C=CCC(CCC)Oc1ccc(CCC(C)=O)cc1 (stereo not drawn) [Example 21, 4-(4-(hept-1-en-4-yloxy)phenyl)butan-2-one] | raspberry |  |
| CC/C=C\CCOc1ccc(C=NOC)cc1OCC [Example 47, 3-ethoxy-4-(((Z)-hex-3-en-1-yl)oxy)benzaldehyde O-methyl oxime] | vanilla (sweet, gourmand, carnation floral, chestnut cream) |  |
| COc1cc(C)cc(OCCC=C(C)C)c1 [Example 43, 1-methoxy-3-methyl-5-((4-methylpent-3-en-1-yl)oxy)benzene] | animalic, leathery, phenolic, paracresol, green, hay, rooty |  |
| CCOc1cc(C=O)ccc1OCCC=CCC(C)C [Example 31, 3-ethoxy-4-((6-methylhept-3-en-1-yl)oxy)benzaldehyde] | powdery, vanilla, green, hazelnut, chocolate |  |
| CCOc1cc(C=O)ccc1OC1CC=CCC1 (stereo not drawn) [Example 51, 4-(cyclohex-3-en-1-yloxy)-3-ethoxybenzaldehyde] | powdery (vanilla) |  |
| CC/C=C\CCOc1ccccc1OCC [Example 39, (Z)-1-ethoxy-2-(hex-3-en-1-yloxy)benzene] | medicinal, phenolic, vanilla |  |
| CC/C=C\CCOc1ccc(COCC)cc1OCC [Example 48, (Z)-2-ethoxy-4-(ethoxymethyl)-1-(hex-3-en-1-yloxy)benzene] | spicy (eugenol, smokey), powdery (vanilla) |  |
| C=CCC(C)(C)Oc1ccc(C=O)cc1OCC [Example 28, 3-ethoxy-4-((2-methylpent-4-en-2-yl)oxy)benzaldehyde] | powdery (vanilla) |  |
| CCC/C=C/COc1ccc(C=O)cc1OCC [Example 54, (E)-3-ethoxy-4-(hex-2-en-1-yloxy)benzaldehyde, reference compound] |  | odour intensity, wet [2]: 1.2; odour intensity, 1 day [2]: 1.8; odour intensity, 4 days [2]: 1.4 |
| CC=CCCOc1cc(C)c(C(=O)OC)c(O)c1C [Example 63, methyl 2-hydroxy-3,6-dimethyl-4-(pent-3-en-1-yloxy)benzoate] | mossy, evernyl, dry powdery |  |
| CC/C=C/CCOc1ccc(C=O)cc1OCC [Example 2, (E)-3-ethoxy-4-(hex-3-en-1-yloxy)benzaldehyde] | powdery (vanilla, creamy) slightly fruity (raspberry, strawberry) |  |
| (Z)-2-ethoxy-1-(hex-3-en-1-yloxy)-4-methylbenzene and (Z)-1-ethoxy-2-(hex-3-en-1-yloxy)-4-methylbenzene [Example 35] | spicy, eugenol, clove, phenolic, vanilla, medicinal |  |
| CCC=CCCOc1cc(C)ccc1C(C)C [Example 30, 2-(hex-3-en-1-yloxy)-1-isopropyl-4-methylbenzene] | aromatic, thymol, menthol |  |
| CC/C=C\CCOc1ccc(COC(C)C)cc1OCC [Example 50, (Z)-2-ethoxy-1-(hex-3-en-1-yloxy)-4-(isopropoxymethyl)benzene] | spicy (eugenol, smokey), powdery (vanilla), green |  |
| C=CCCOc1ccc(C=O)cc1OCC [Example 12, 4-(but-3-en-1-yloxy)-3-ethoxybenzaldehyde] | powdery (vanilla, creamy, dough) |  |
